The subject of this assay is T1, β-glucosidase purified from F. chlamydosporum HML278 (BG FH1 / BG FH2, not told which).
T1 construct: native secreted enzyme from solid-state fermentation; native PAGE recovery and Sephacryl S-200; 93 kDa and 52 kDa (SDS-PAGE), single subunit
Description: initial rates, Lineweaver-Burk. The class given is biochemical, Fusarium chlamydosporum. The note with it: pH 4.8, 30 °C; one value given, not told whether BG FH1 or BG FH2. The text has this:
initial rates, Lineweaver-Burk on β-glucosidase purified from F. chlamydosporum HML278 (BG FH1 / BG FH2, not told which) | By using pNPG as a substrate, it was shown that the Km and Vmax values

As usually defined, the Km is the concentration of substrate that gives half-maximal velocity. For the compound `O=[N+]([O-])c1ccc(O[C@@H]2O[C@H](CO)[C@@H](O)[C@H](O)[C@H]2O)cc1` [pNPG], the Michaelis constant (Km) turned out to be 2.76 mg/mL.

The record behind these values is paper PMC7544787, “One-step purification of two novel thermotolerant β-1,4-glucosidases from a newly isolated strain of Fusarium chlamydosporum HML278 and their characterization” (AMB Express, 2020).
